Literature values, collected in US20230023289A1, “ANTHRANILAMIDE COMPOSITION” (priority 2019, published 2023).

Target: insect ryanodine receptors (Drosophila melanogaster, UniProt Q24498)
Conditions: in words

insect ryanodine receptors, sequence (Q24498 whole entry): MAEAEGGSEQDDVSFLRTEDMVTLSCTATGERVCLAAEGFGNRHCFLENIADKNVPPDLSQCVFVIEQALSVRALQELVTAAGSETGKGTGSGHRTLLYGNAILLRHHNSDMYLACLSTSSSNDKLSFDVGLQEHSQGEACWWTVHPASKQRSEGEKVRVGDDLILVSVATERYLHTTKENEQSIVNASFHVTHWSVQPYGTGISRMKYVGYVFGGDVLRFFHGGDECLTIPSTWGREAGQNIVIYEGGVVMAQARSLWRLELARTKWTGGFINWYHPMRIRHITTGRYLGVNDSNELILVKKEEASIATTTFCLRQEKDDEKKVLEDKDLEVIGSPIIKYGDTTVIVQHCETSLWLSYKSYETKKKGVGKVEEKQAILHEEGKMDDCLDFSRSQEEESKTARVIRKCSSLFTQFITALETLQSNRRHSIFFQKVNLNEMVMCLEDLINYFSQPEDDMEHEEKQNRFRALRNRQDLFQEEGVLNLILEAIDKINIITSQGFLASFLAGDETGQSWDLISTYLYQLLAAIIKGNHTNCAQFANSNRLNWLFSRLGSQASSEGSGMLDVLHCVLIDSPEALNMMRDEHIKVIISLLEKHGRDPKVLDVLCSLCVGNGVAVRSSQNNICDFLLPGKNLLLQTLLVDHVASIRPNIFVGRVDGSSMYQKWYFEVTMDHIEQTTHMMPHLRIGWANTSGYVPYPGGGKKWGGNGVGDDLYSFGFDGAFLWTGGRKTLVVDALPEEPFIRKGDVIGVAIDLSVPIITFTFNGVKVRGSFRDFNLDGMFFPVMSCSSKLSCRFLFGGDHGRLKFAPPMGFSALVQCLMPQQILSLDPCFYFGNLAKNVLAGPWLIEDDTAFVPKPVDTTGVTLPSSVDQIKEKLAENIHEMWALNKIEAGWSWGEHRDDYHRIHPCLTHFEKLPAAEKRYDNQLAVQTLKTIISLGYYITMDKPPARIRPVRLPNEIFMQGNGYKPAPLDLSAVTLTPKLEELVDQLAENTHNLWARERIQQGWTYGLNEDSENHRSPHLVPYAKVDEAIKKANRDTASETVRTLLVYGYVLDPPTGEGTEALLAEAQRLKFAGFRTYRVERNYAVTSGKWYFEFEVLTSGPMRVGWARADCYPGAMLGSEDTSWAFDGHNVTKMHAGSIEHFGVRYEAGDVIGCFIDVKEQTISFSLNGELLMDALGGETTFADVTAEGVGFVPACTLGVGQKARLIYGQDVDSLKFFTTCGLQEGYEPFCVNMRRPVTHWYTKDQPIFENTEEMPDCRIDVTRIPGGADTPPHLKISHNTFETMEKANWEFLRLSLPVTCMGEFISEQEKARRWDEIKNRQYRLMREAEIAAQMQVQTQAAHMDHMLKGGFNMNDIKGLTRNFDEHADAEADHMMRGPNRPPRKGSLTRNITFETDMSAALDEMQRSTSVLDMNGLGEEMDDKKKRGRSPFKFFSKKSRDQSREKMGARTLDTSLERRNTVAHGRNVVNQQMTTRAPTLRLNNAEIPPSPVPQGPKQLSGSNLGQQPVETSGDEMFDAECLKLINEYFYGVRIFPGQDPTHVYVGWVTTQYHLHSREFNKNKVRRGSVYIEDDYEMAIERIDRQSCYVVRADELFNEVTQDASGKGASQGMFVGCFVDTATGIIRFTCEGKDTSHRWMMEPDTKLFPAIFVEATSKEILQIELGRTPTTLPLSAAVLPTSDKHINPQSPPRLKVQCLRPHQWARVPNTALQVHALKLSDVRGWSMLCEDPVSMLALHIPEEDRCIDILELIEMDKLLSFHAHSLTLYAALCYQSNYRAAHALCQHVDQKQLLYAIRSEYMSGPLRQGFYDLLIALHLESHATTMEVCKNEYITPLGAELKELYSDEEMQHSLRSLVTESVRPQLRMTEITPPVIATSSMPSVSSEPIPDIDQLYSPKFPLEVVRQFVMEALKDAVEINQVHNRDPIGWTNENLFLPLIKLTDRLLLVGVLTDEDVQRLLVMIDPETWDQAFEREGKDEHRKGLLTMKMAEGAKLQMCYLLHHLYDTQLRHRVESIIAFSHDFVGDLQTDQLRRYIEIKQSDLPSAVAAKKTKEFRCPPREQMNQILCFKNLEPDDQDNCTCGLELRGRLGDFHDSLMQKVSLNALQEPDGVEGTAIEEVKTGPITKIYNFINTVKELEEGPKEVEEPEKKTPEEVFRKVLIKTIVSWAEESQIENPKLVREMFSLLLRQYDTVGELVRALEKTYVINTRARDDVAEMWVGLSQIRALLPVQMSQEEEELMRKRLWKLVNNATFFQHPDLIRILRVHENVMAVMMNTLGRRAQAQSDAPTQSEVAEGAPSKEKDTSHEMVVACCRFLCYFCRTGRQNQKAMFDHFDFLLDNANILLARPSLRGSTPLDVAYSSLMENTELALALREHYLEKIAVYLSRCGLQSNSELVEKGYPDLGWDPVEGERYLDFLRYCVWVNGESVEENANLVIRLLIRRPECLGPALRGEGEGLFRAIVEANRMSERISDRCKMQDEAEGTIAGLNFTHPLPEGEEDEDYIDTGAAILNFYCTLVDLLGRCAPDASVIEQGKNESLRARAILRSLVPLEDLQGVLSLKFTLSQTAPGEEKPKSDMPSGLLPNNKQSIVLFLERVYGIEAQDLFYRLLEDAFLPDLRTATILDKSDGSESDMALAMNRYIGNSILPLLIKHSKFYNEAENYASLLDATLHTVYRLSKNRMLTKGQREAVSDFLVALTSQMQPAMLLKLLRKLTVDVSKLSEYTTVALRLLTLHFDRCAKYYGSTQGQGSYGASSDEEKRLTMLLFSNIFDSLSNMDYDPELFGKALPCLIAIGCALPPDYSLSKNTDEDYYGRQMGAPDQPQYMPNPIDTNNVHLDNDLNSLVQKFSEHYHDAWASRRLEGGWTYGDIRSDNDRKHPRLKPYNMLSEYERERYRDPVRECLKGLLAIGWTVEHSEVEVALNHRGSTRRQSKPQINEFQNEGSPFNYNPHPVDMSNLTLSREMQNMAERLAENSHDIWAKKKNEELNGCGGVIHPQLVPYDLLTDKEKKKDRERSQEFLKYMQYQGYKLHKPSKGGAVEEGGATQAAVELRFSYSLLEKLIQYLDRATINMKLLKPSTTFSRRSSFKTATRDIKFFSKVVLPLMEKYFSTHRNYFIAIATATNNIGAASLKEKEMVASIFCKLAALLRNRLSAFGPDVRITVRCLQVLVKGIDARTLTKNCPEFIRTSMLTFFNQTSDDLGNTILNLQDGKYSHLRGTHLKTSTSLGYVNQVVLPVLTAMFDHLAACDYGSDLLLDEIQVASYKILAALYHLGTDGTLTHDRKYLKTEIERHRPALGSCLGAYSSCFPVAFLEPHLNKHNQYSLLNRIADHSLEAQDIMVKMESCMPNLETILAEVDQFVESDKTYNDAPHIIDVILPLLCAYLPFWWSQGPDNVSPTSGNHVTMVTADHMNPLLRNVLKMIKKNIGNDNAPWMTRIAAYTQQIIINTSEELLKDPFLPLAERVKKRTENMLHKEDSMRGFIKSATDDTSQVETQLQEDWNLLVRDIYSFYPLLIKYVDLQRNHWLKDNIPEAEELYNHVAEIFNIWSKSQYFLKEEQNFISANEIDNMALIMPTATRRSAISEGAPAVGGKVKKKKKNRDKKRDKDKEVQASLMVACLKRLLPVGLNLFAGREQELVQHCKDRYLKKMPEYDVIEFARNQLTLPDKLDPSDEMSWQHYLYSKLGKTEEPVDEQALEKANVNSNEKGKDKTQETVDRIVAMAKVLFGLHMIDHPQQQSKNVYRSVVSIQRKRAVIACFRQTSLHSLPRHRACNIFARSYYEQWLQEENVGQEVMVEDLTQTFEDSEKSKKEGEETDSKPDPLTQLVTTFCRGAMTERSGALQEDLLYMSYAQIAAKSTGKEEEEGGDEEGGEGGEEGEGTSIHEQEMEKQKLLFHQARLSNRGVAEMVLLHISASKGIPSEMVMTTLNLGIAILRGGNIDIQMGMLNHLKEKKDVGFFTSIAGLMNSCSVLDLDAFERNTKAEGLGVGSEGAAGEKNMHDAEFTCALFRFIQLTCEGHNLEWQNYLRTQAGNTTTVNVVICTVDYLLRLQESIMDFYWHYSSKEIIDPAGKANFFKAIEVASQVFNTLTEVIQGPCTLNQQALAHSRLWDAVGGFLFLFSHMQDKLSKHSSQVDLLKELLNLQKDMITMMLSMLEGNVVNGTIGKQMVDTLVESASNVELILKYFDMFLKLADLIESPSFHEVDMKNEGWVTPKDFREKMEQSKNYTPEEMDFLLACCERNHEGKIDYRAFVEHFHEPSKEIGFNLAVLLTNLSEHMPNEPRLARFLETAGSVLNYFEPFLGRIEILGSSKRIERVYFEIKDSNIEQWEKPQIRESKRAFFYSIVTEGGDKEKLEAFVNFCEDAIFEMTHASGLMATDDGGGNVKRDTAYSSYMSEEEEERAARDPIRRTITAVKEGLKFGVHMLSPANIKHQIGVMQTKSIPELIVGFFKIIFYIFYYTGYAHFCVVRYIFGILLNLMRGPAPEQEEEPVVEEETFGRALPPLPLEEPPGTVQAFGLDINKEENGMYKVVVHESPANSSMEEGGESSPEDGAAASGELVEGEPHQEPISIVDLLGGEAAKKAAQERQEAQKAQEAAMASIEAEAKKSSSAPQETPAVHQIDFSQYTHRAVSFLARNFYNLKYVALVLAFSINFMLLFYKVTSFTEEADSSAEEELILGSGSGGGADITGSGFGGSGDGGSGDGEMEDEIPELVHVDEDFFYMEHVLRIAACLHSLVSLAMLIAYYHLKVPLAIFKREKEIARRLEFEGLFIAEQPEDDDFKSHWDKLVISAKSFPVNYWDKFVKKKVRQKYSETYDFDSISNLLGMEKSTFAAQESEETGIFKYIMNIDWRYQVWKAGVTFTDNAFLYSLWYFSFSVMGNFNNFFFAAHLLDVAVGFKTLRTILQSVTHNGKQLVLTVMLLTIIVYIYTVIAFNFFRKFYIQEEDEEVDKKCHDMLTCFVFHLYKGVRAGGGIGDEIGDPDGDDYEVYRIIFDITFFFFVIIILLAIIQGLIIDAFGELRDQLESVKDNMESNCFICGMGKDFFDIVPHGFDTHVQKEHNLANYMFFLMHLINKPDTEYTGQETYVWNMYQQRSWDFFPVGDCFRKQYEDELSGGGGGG

CNC(=O)c1cc(Cl)cc(C)c1NC(=O)c1cc(Br)nn1-c1ncccc1Cl [chlorantraniliprole, 5-bromo-N-[4-chloro-2-methyl-6-(methylcarbamoyl)phenyl]-2-(3-chloropyridin-2-yl)pyrazole-3-carboxamide]
Selectivity for insect ryanodine receptors over mammalian ryanodine receptors: excellent differential selectivity
